In one assay the target is T1, apo-caspase-6 (Homo sapiens, UniProt P55212).
T1 construct: Residues 24-179 and 194-293 from caspase-6 cDNA (Origene) were cloned into pET-24b and pET-23b vectors; 6x histidine tag; made in house; host or cells: E. coli (as above), BirA co-expressed
T1 sequence (P55212 24-179): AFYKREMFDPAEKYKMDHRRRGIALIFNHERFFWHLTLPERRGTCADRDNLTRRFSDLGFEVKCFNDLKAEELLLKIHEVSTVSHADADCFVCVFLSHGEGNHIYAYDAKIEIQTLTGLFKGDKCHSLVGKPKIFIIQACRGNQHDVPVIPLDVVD
T1 sequence (P55212 194-293): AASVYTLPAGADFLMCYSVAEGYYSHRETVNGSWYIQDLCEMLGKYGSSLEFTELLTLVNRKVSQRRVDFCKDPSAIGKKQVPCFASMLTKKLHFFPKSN
As to the kind of experiment: SPR binding to apo-caspase-6. The conditions noted are these: Rmax locked to control compound. The procedure: (§1) For SPR experiments, caspase-6 was cloned to include a C-terminal avi-tag (Avidity) and expressed and purified as above, except that biotin ligase (BirA) was co-expressed during fermentation. […] Avi-tagged zymogen C163A-caspase-6 was processed to mature C163A-caspase-6 by the addition of active caspase-3 and caspase-6. Chip preparation for neutravidin-based capture was performed as previously described using either a Biacore T100 or Biacore 3000 instrument (GE Healthcare). Running buffer was 50 mM HEPES pH 7.2, 100 mM MgSO4, 30 mM NaCl, 1 mM TCEP, 0.01% Triton X-100, 1% PEG-3350, 2.5% DMSO, and the instrument was set for 20 degrees C. After capture one flow cell of apo-caspase-6 was exposed to a continuous flow of 20 µM VEID-FMK. A rise in signal could be detected for the binding/reacting of the VEID-FMK and exposure was continued until no additional rise in response was observed (∼45 minutes) indicating full saturation of all binding sites. There was no observed decrease in signal upon washing, indicating the reaction was irreversible. […] Fluorescent substrates were too limiting in solubility and quantity to be added to the running buffer, so substrates were mixed at a concentration equal to their Kmapp with 3 and injected together over the indicated surfaces. […]
On the technique in general: SPR reads the build-up and loss of mass on a sensor chip optically.

Assay [1] concerns the target T2, caspase-6/(VEID)2R110 Michaelis complex (Homo sapiens, UniProt P55212, C163A).
T2 construct: Avi-tagged zymogen C163A-caspase-6 was processed to mature C163A-caspase-6 by the addition of active caspase-3 and caspase-6; made in house
T2 sequence (P55212 24-179 C163A): T1 sequence (P55212 24-179) with C140A
T2 sequence (P55212 194-293): T1 sequence (P55212 194-293)
As to the kind of experiment: SPR co-injection with (VEID)2R110 over apo- and C163A-caspase-6. It counts as binding. The settings on record: co-injected with (VEID)2R110, dissociation of both compound and substrate, read-out: apparent KD. The procedure:
as §1

Molecules are shown by their SMILES. Substitutions are numbered along the chain they refer to.

For `COc1ccc(-c2cc(C(=O)N[C@@H](CO)Cc3cccc(C#N)c3)co2)cc1OC` [Compound 3], the Kd on apo-caspase-6 is 192 µM; in assay [1] it was ~0.2 µM.

Source of the values: paper PMC3515450, “Mechanistic and Structural Understanding of Uncompetitive Inhibitors of Caspase-6” (PLoS ONE, 2012).
